According to patent US9617278B2, “Antimicrobial compounds” (Dow Global Technologies LLC, priority 2012, dated 2017):
Blank lines part the entries; values can stand above or below the compound they belong to.

Legend:
[1] = Stability of the compound on work-up, GC of dried sample; assay type: physicochemical; details: GC peak becomes smaller after drying of the crude material
Description: A three neck 50 mL round bottom flask equipped with a stir bar, thermocouple, addition funnel capped with nitrogen inlet and condenser is charged with 2-amino-2-methylpropan-1-ol (95%, 7.8 g, 0.083 mols, 1.0 equivalents). The flask is cooled down to approximately 10° C. under ice/water bath. Once the temperature is reached, glutaraldehyde (50%, 16.7 g, 0.083 mols, 1.0 equivalents) is added drop wise over a period of 15-20 minutes. The reaction temperature is maintained by cooling the bath and by controlled addition of glutaraldehyde. After complete addition of glutaraldehyde, the transparent reaction mixture turns milky/opaque and a viscous sticky solid starts forming making stirring difficult. The reaction is stopped and the GC of the material is taken and a peak at 11.99 minutes is observed which corresponds to compound (4). The GC has some minor impurities in the high retention region. 20 mL of ethyl acetate is added to the reaction mixture and vigorously stirred under nitrogen. The entire content of the flask dissolve in ethyl acetate. The ethyl acetate layer is washed twice with 25 mL of water and the organic layer dried in magnesium sulfate.
A three neck 100 mL round bottom flask equipped with a stir bar, thermocouple, addition funnel capped with nitrogen inlet and condenser is charged with 3-aminobutan-2-ol (100%, 8.9 g, 0.1mols, 1.0 equivalent). […]

[2] = tested on: mixed pool of 6 bacterial species (aerobic organisms); assay: Biocidal efficacy at room temperature, aerobic bacteria; assay type: cell-based
Description: (§1) Glutaraldehyde and Compounds 1 and 2 are tested for biocidal activity against a pool of aerobic organisms at room temperature and against sulfate reducing bacteria (SRB) at room temperature. Tests are performed as follows:
(§2) a. Stock preparation. Glutaraldehyde (50% in water) and Compounds 1 and 2 are each dissolved in DMSO to a concentration of 200 mM, which is equivalent to 20,000 ppm of free glutaraldehyde.
b. Aerobic Bacteria—a mixed pool of 6 bacterial species at ˜5×10^6 CFU/mL in phosphate buffered saline is distributed into a 96-well plate. Each well receives an independent chemical treatment of glutaraldehyde or Compound 1 or 2 at concentrations ranging from 200 ppm to 12 ppm glutaraldehyde. A control treatment of DMSO alone is also included. Each condition is tested in triplicate. After set periods of incubation (1, 4, and 24 h), the number of surviving cells in each well are enumerated by dilution to extinction in a medium containing resazurin dye as an indicator. c. Sulfate Reducing Bacteria (SRB)—SRB testing is performed as for the aerobic bacteria with the following modifications: the species Desulfovibrio longus is tested in anaerobic PBS and the enumeration of surviving cells is performed in a medium containing soluble iron as an indicator. d. Results: Values indicate the minimum dose needed (in ppm) to achieve 3-log reduction in bacteria levels. […]

Desulfovibrio longus = assay: Biocidal efficacy at room temperature, sulfate reducing bacteria (SRB); assay type: cell-based; details: for minimum dose needed to achieve 3-log reduction in bacteria levels: SRB, anaerobic PBS, doses 200 to 12 ppm glutaraldehyde equivalent, n/a = threshold not met at any tested dose; for activity against SRB (in words): compared with glutaraldehyde
Description: as §1, §2
b. Aerobic Bacteria—a mixed pool of 6 bacterial species at ˜5×10^6 CFU/mL in phosphate buffered saline is distributed into a 96-well plate. Each well receives an independent chemical treatment of glutaraldehyde or Compound 1 or 2 at concentrations ranging from 200 ppm to 12 ppm glutaraldehyde. A control treatment of DMSO alone is also included. Each condition is tested in triplicate. After set periods of incubation (1, 4, and 24 h), the number of surviving cells in each well are enumerated by dilution to extinction in a medium containing resazurin dye as an indicator. c. Sulfate Reducing Bacteria (SRB)—SRB testing is performed as for the aerobic bacteria with the following modifications: the species Desulfovibrio longus is tested in anaerobic PBS and the enumeration of surviving cells is performed in a medium containing soluble iron as an indicator. d. Results: Values indicate the minimum dose needed (in ppm) to achieve 3-log reduction in bacteria levels. “n/a” indicates the threshold was not met at any of the tested doses. “N.D” indicates data not available.

[3] = tested on: Thermus thermophilus (ATCC 27634); assay: Biocidal efficacy at elevated temperature; assay type: cell-based; details: for log kill of treated bacterial populations relative to an untreated control: 50 ppm glutaraldehyde equivalent
Description: Compound 1 (208 mg) is dissolved in DMSO (5 mL) to yield a 200 mM solution such that the glutaraldehyde-equivalent concentration of the stock solution is 20,000 ppm. The bacterial strain Thermus thermophilus (ATCC 27634) is maintained at 70° C. After 24-48 hours of growth, 10 mL of bacterial culture are harvested by spinning in a Beckman-Coulter benchtop centrifuge at 3000 rpm for 15 min. The cell pellet is resuspended in 100 mL of phosphate-buffered saline (PBS) to give approximately 5×10^5 CFU/mL and aliquoted into 10 mL portions in glass test tubes fitted with screw caps. Samples are equilibrated to 37, 55, or 70° C. for 30 min and then treated with glutaraldehyde or Compound 1 at 50 ppm glutaraldehyde equivalent. The treated samples are returned to their respective equilibration temperatures for 4 h and then enumerated for surviving bacteria. After 24 h, the process is repeated by adding fresh grown bacteria to the samples to re-challenge the biocide. The samples are again enumerated after 4 h.
Results are reported in terms of log kill of treated bacterial populations relative to an untreated control at each temperature. For values listed as “>x,” actual kill may have been higher but could not be detected by this assay.

stability of the compound (in words) [1]: limited stability
SMILES: CC1(C)COC2CCC=CN21 (stereo not drawn) [Compound 4, 3,3-dimethyl-3,7,8,8a-tetrahydro-2H-oxazolo[3,2-a]pyridine]

SMILES: CCCCC1OC2CCC=CN2C1CC (stereo not drawn) [Compound 1, 2-butyl-3-ethyl-3,7,8,8a-tetrahydro-2H-oxazolo[3,2-a]pyridine]
biocidal activity against aerobic bacteria (in words) [2]: do not show significant biocidal activity
minimum dose needed to achieve 3-log reduction in bacteria levels (Desulfovibrio longus; 4 hours): 200 ppm
minimum dose needed to achieve 3-log reduction in bacteria levels (Desulfovibrio longus; 24 hours): 26 ppm
activity against SRB (in words) (Desulfovibrio longus): some activity against SRB, but are not as effective as glutaraldehyde
log kill of treated bacterial populations relative to an untreated control ([3]; 37° C., 4 hr): >3 log
log kill of treated bacterial populations relative to an untreated control ([3]; 37° C., 24 hr re-challenge with fresh bacteria, enumerated after 4 h): 2 log
log kill of treated bacterial populations relative to an untreated control ([3]; 55° C., 4 hr): >3 log
log kill of treated bacterial populations relative to an untreated control ([3]; 55° C., 24 hr re-challenge with fresh bacteria, enumerated after 4 h): 1 log
activity compared with glutaraldehyde (in words) ([3]; 70° C.): equivalent activity to glutaraldehyde
log kill of treated bacterial populations relative to an untreated control ([3]; 70° C., 4 hr): >4 log
log kill of treated bacterial populations relative to an untreated control ([3]; 70° C., 24 hr re-challenge with fresh bacteria, enumerated after 4 h): >4 log
activity compared with glutaraldehyde (in words) ([3]; lower temperatures (37, 55° C.)): less effective

stability of the compound (in words) [1]: limited stability
SMILES: CC1OC2CCC=CN2C1C (stereo not drawn) [Compound 5, 2,3-dimethyl-3,7,8,8a-tetrahydro-2H-oxazolo[3,2-a]pyridine]

SMILES: CCCCC(CC)C1OC2CCC=CN2C1C (stereo not drawn) [Compound 2, 2-(heptan-3-yl)-3-methyl-3,7,8,8a-tetrahydro-2H-oxazolo[3,2-a]pyridine]
biocidal activity against aerobic bacteria (in words) [2]: do not show significant biocidal activity
minimum dose needed to achieve 3-log reduction in bacteria levels (Desulfovibrio longus; 1 hour): 200 ppm
minimum dose needed to achieve 3-log reduction in bacteria levels (Desulfovibrio longus; 4 hours): >200 ppm
activity against SRB (in words) (Desulfovibrio longus): some activity against SRB, but are not as effective as glutaraldehyde
